Test results: publication PMC10326435, “Antiprotozoal activity of natural products from Nigerien plants used in folk medicine” (Frontiers in Pharmacology, 2023)
Several values for one entry are separate records, joined by “and”; a condition that tells them apart may be missing. Identical values can stand only once. Like-named read-outs stand apart in the source and are kept apart here.

How the values were obtained:
[1] = tested on: L. donovani (MHOM-ET-67/L82, axenically grown amastigotes); experiment: in vitro activity on L. donovani, serial dilution assay; format: cell-based, Leishmania donovani; conditions: for IC50: Leishmania donovani; for Selectivity index (SI) L. donovani: SI = IC50 cytotoxicity (L6)/IC50 in L. donovani
Procedure: (§1) The in vitro activity was assessed on T. b. rhodesiense (STIB900, trypomastigotes), T. cruzi (Tulahuen C2C4, intracellular amastigotes), L. donovani (MHOM-ET-67/L82, axenically grown amastigotes), P. falciparum (NF54, intraerythrocytic), and L6 cells (ATCC, CRL-1458™, rat skeletal myoblasts) as previously described ([Bernal et al., 2020]). The activities were determined in serial dilution assays with 72 h compound exposure, respectively 96 h for intracellular T. cruzi. Results are expressed in µg/mL for extracts and in µM for pure compounds. The IC50 values were determined for the compounds only when they were <50 µM.

[2] = cytotoxicity in L6 cells; format: cell-based, rat
Procedure: as §1

[3] = tested on: T. b. rhodesiense (STIB900, trypomastigotes); experiment: in vitro activity on T. b. rhodesiense, serial dilution assay; format: cell-based, Trypanosoma brucei rhodesiense; conditions: for Selectivity index (SI) T. b. rhodesiense: SI = IC50 cytotoxicity (L6)/IC50 in T. b. rhodesiense; for IC50: Trypanosoma brucei
Procedure: as §1

[4] = tested on: P. falciparum (NF54, intraerythrocytic); experiment: in vitro activity on P. falciparum, serial dilution assay; format: cell-based, Plasmodium falciparum; conditions: for IC50: Plasmodium falciparum, read-out: IC50 P. falciparum; for Selectivity index (SI) P. falciparum: SI = IC50 cytotoxicity (L6)/IC50 in P. falciparum
Procedure: as §1

[5] = tested on: T. cruzi (Tulahuen C2C4, intracellular amastigotes); experiment: in vitro activity on T. cruzi, serial dilution assay; format: cell-based, Trypanosoma cruzi; conditions: for IC50: Trypanosoma cruzi, TULAHUEN; for Selectivity index (SI) T. cruzi: SI = IC50 cytotoxicity (L6)/IC50 in T. cruzi
Procedure: as §1

[6] = tested on: P. falciparum; conditions: already reported; ref Suksamrarn et al., 2006; Panseeta et al., 2011; Tuenter et al., 2017; read-out: antiplasmodial activity IC50; cited from earlier work
[7] = 72 h, axenic amastigotes, 72 h exposure, means of two independent assays ± deviation from the mean, read-out: IC50 L. donovani
[8] = 72 h, 72 h exposure, means of two independent assays ± deviation from the mean, read-out: IC50 T. b. rhodesiense
[9] = NF54, 72 h, 72 h exposure, means of two independent assays ± deviation from the mean
[10] = 96 h, 96 h exposure, means of two independent assays ± deviation from the mean, read-out: IC50 T. cruzi
[11] = inactive, read-out: IC50 L. donovani (inactive)
[12] = inactive, read-out: IC50 T. b. rhodesiense (inactive)
[13] = inactive, read-out: IC50 T. cruzi (inactive)
[14] = rat, L6 cells (rat skeletal myoblasts, ATCC CRL-1458), rat skeletal myoblast (L6 cells), 72 h exposure, means of two independent assays ± deviation from the mean, read-out: IC50 Cytotoxicity
[15] = 72 h, read-out: IC50 L. donovani
[16] = rat skeletal myoblast (L6 cells), 72 h exposure, means of two independent assays ± deviation from the mean, read-out: IC50 Cytotoxicity
[17] = 72 h exposure, means of two independent assays ± deviation from the mean, read-out: IC50 T. b. rhodesiense

Row | Compound | IC50 [1, 7] | Selectivity index (SI) T. b. rhodesiense [3] | IC50 [3, 8] | IC50 [4, 9] | Selectivity index (SI) P. falciparum [4] | IC50 [5, 10] | Selectivity index (SI) L. donovani [1] | other results
1 | COc1ccc2cc1/C=C\NC(=O)[C@H](Cc1ccccc1)NC(=O)[C@@H]1[C@H](CCN1C(=O)[C@@H](NC(=O)C(C)N(C)C)C(C)C)O2 (stereo in doubt) [Compound 10, amphibine H] | > 50 µM | > 2.5 | 30.4 ± 4.6 µM | 15.1 ± 0.5 µM | > 5.3 | > 50 µM | – | IC50 at 72 h ([2]; rat, IC50 Cytotoxicity): > 50 µM
2 | O=C(Cn1ccnc1[N+](=O)[O-])NCc1ccccc1 [Benznidazole, reference compound] | – | – | – | – | – | 2.3 ± 0.2 µM | – | IC50 ([5]; 96 h, Table 2, 96 h exposure, means of two independent experiments, read-out: IC50 T. cruzi): 0.667 µg/mL
3 | CCN(CC)CCCC(C)Nc1ccnc2cc(Cl)ccc12 (stereo not drawn) [Chloroquine, reference compound] | – | – | – | – | – | – | – | IC50 ([4]; NF54, 72 h): 0.003 µg/mL and 9 nM
4 | CCCCCCCCCCCCCCCC(=O)OCC(O)COP(=O)([O-])OCC[N+](C)(C)C (stereo not drawn) [Compound 3, 1-palmitoyl-lysolecithin] | > 20 µM | – | > 20 µM | > 10 µM | – | – | – | IC50 at 72 h ([2]; rat, IC50 Cytotoxicity): > 20 µM; IC50 ([5]; 96 h, read-out: IC50 T. cruzi): 12.1 ± 2.4 µM
5 | CN[C@@H](C)C(=O)N[C@H](C(=O)N1CC[C@@H]2Oc3ccc(cc3)/C=C\NC(=O)[C@H](Cc3ccccc3)NC(=O)[C@H]21)C(C)C [Compound 4, mauritine F] | > 50 µM | – | > 50 µM | 24.3 ± 4.5 µM | > 5.5 | > 50 µM | – | IC50 [6]: 34.2 µM; IC50 at 72 h ([2]; rat, IC50 Cytotoxicity): > 50 µM
6 | CC(C)[C@H](NC(=O)[C@H](C)N(C)C)C(=O)N1CC[C@@H]2Oc3ccc(cc3)/C=C\NC(=O)[C@H](Cc3ccccc3)NC(=O)[C@H]21 [Compound 5, mauritine A] | – | – | – | – | – | – | – | IC50 [1, 11]: > 50 µM; IC50 [3, 12]: > 50 µM; IC50 ([4]; NF54, abstract and b45 text): > 50 µM; IC50 [5, 13]: > 50 µM
7 | C=C(C)[C@@H]1CC[C@]2(C(=O)O)CC[C@]3(C)[C@H](CC[C@@H]4[C@@]5(C)[C@@H](C(=O)O)[C@H](O)C(C)(C)[C@@H]5CC[C@]43C)[C@@H]12 [Compound 6, ceanothic acid] | 29 ± 3.3 µM | – | > 50 µM | > 50 µM | – | > 50 µM | > 1.7 | IC50 [6]: > 20 µM; IC50 at 72 h ([2]; rat, IC50 Cytotoxicity): > 50 µM
8 | CN[C@@H](Cc1ccccc1)C(=O)N[C@@H]1C(=O)N[C@@H](CC(C)C)C(=O)N/C=C\c2ccc(cc2)O[C@H]1C(C)C [Compound 7, sanjoinine B] | > 50 µM | – | > 50 µM | 23.1 ± 9 µM | > 6.0 | > 50 µM | – | IC50 at 72 h [2, 14]: > 50 µM
9 | CCC(C)[C@@H]1NC(=O)[C@@H](NC(=O)[C@H](Cc2ccccc2)N(C)C)[C@H](C(C)C)Oc2ccc(cc2)/C=C\NC1=O (stereo partly drawn) [Compound 8, lotusanine A] | > 50 µM | – | > 50 µM | > 50 µM | – | > 50 µM | – | IC50 at 72 h [2, 14]: > 50 µM
10 | CC(C)C[C@@H]1NC(=O)[C@@H](NC(=O)[C@H](Cc2c[nH]c3ccccc23)N(C)C)[C@H](C(C)C)Oc2ccc(cc2)/C=C\NC1=O [Compound 9, nummularine K] | > 50 µM | 2.7 | 12.7 ± 3.8 µM | 20.7 ± 5.8 µM | 1.6 | 43.6 ± 7.1 µM | – | IC50 at 72 h [2, 14]: 33.6 ± 4.9 µM; Selectivity index (SI) T. cruzi [5]: 0.8
11 | C=C(C)C12CCC3(CCC4(C)C(CCC5C6(C)C(C(=O)O)C(O)C(C)(C)C6CCC54C)C31)C(=O)O2 (stereo not drawn) [Compound 13] | 11.6 ± 2.4 µM | – | > 50 µM | 29.1 ± 4.1 µM | > 3.7 | > 50 µM | > 9.3 | IC50 at 72 h ([2]; rat, IC50 Cytotoxicity): > 50 µM
12 | C=C(C)[C@@H]1CC[C@]2(C(=O)O)CC[C@]3(C)[C@H](CC[C@@H]4[C@@]5(C)[C@H](C=O)[C@@H](O)C(C)(C)[C@@H]5CC[C@]43C)[C@@H]12 [Compound 14, colubrinic acid] | – | – | – | – | > 5.5 | – | > 45 | IC50 [1, 15]: 1.9 ± 0.4 µM; IC50 at 72 h [2, 16]: > 50 µM; IC50 [3, 17]: > 50 µM; IC50 ([4]; NF54, 72 h): 15.3 ± 4.1 µM; IC50 ([5]; 96 h, read-out: IC50 T. cruzi): > 50 µM
13 | C=C(C)[C@@H]1CC[C@]2(C(=O)O)CC[C@]3(C(=O)O)[C@H](CC[C@@H]4[C@@]5(C)C=CC(C)(C)[C@@H]5CC[C@]43C)[C@@H]12 [Compound 17, ceanothenic acid] | – | – | – | – | > 8.0 | – | > 40 | IC50 [1, 15]: 2.6 ± 0.2 µM; IC50 at 72 h [2, 16]: > 50 µM; IC50 [3, 17]: > 50 µM; IC50 ([4]; NF54, 72 h): 13.9 ± 4 µM; IC50 ([5]; 96 h, read-out: IC50 T. cruzi): > 50 µM
14 | C=C(C)[C@@H]1CC[C@]2(C(=O)O)CC[C@]3(C)[C@H](CC[C@@H]4[C@@]5(C)C[C@@H](O)[C@H](OC(=O)/C=C/c6ccc(O)cc6)C(C)(C)[C@@H]5CC[C@]43C)[C@@H]12 [Compound 18, 3-O-trans-p-coumaroylalphitolic acid] | 3 ± 0.2 µM | 0.6 | 25.9 ± 2.6 µM | 0.2 ± 0.04 µM | 79.0 | 19.5 ± 0.6 µM | 5.3 | IC50 at 72 h ([2]; rat, IC50 Cytotoxicity): 15.8 ± 6.4 µM; Selectivity index (SI) T. cruzi [5]: 0.8
15 | CC(C)=CCC1=C(Cl)C(=O)c2c(O)ccc(O)c2C1=O [Compound 21] | 3 ± 0.4 µM | 15.8 | 0.5 ± 0.3 µM | 9.2 ± 2.1 µM | 0.9 | 21.5 ± 0.2 µM | 2.6 | IC50 at 72 h [2, 14]: 7.9 ± 1.3 µM; Selectivity index (SI) T. cruzi [5]: 0.4
16 | C=C(C)[C@H](O)CC1=C(O)C(=O)c2c(O)ccc(O)c2C1=O [Compound 22] | 7.9 ± 0.9 µM | 0.8 | 36 ± 9.4 µM | > 50 µM | – | > 50 µM | 3.8 | IC50 at 72 h [2, 14]: 30.4 ± 10.6 µM
17 | COC1=CC(=O)C=C(OC)C1=O [Compound 23] | – | – | – | – | – | – | – | IC50 [1, 15]: 15.1 ± 1 µM; IC50 at 72 h [2, 16]: > 50 µM; IC50 [3, 17]: 9.3 ± 3.1 µM; IC50 ([4]; NF54, 72 h): 36.9 ± 15.4 µM; IC50 ([5]; 96 h, read-out: IC50 T. cruzi): > 50 µM
18 | CC(C)=CC[C@@]12O[C@@H]1C(O)c1c(O)ccc(O)c1C2=O (stereo partly drawn) [Compound 25] | 12.7 ± 5.3 µM | 7.6 | 2.5 ± 0.1 µM | 14 ± 1.9 µM | 1.4 | > 50 µM | 1.5 | IC50 at 72 h [2, 14]: 19 ± 2.3 µM
19 | CC(C)=CC[C@@]12O[C@@H]1C(=O)c1c(O)ccc(O[C@@H]3O[C@H](CO)[C@@H](O)[C@H](O)[C@H]3O)c1C2=O [Compound 26] | 3.5 ± 0.5 µM | 1.2 | 9.9 ± 4.5 µM | 9 ± 5.4 µM | 1.4 | 39.2 ± 5 µM | 3.5 | IC50 at 72 h [2, 14]: 12.2 ± 1.8 µM; Selectivity index (SI) T. cruzi [5]: 0.3
20 | CC(C)=CCCc1ccc2c(c1)C(=O)c1ccccc1C2=O [Compound 27] | – | – | – | – | – | – | – | IC50 [1, 11]: > 50 µM; IC50 [3, 12]: > 50 µM; IC50 ([4]; NF54, abstract and b45 text): > 50 µM; IC50 [5, 13]: > 50 µM
21 | CC(C)=CCCc1ccc2c(c1O)C(=O)c1ccccc1C2=O [Compound 28] | – | – | – | – | – | – | – | IC50 [1, 11]: > 50 µM; IC50 [3, 12]: > 50 µM; IC50 ([4]; NF54, abstract and b45 text): > 50 µM; IC50 [5, 13]: > 50 µM
22 | COc1cc([C@@H]2OC[C@@H]3[C@H]2CO[C@H]3c2cc(OC)c(O)c(OC)c2)cc(OC)c1O [Compound 30] | 13.4 ± 2.3 µM | 0.6 | 20.2 ± 1.8 µM | 22.6 ± 2 µM | 0.6 | 29.2 ± 11.4 µM | 1.0 | IC50 at 72 h ([2]; rat, IC50 Cytotoxicity): 13 ± 1.7 µM; Selectivity index (SI) T. cruzi [5]: 0.4
23 | Nc1nc(N)nc(Nc2ccc([As]3SCC(CO)S3)cc2)n1 (stereo not drawn) [Melarsoprol, reference compound] | – | – | – | – | – | – | – | IC50 ([3]; 72 h, read-out: IC50 T. b. rhodesiense): 0.005 µg/mL and 16 nM
24 | CCCCCCCCCCCCCCCCOP(=O)([O-])OCC[N+](C)(C)C [Miltefosine, reference compound] | 0.52 ± 0.07 µM | – | – | – | – | – | – | IC50 ([1]; 72 h, Table 2, 72 h exposure, means of two (C. sieberiana three) independent experiments, read-out: IC50 L. donovani): 0.282 µg/mL
25 | COc1cc([C@@H]2c3cc4c(cc3[C@H](O)[C@H]3COC(=O)[C@H]23)OCO4)cc(OC)c1OC [Podophyllotoxin, reference compound] | – | – | – | – | – | – | – | IC50 at 72 h ([2]; Table 2, rat skeletal myoblast (L6 cells), 72 h exposure, read-out: IC50 Cytotoxicity): 0.008 µg/mL
